Test [1] concerns Single Olfactory Cells Responsive to Volatiles Emanating from a Crushed Cotton Square. The test is described as follows: Single-cell electrophysiology: action potentials from single olfactory cells. Type of test: cell-based, Anthonomus grandis. From the text:
Single-cell recording techniques are described in detail elswhere [Dickens, Mitt. Schweiz. Entomol. Ges. 52: 203 (1979); Dickens et al., J. Chem. Ecol. 10: 583 (1984)]. In brief, microelectrodes used for recordings were constructed from 50.8 μm diameter tungsten wire electrolytically sharpened to a tip of 1-2 μm. The recording electrode was positioned under optical control (150-200 X) with a Leitz high-power micromanipulator near either the base of one of the three sensory bands encircling the club, or the base of an individual sensillum just distal to each sensory band region. The ground electrode was inserted in either the rostrum or distal end of the scape. Action potentials were amplified and conditioned by a Grass P-15 preamplifier and Tektronix 5A22N amplifier prior to visualization on a Tektronix 5223 digitizing oscilloscope. The signal then passed through a Teac R51-D data recorder for recording on cassette tapes prior to visualization on a Tektronix 5111 analog oscilloscope. Data were photographed from the analog oscilloscope with a Tektronix C-5C oscilloscope camera. Trains of action potentials were counted visually.
Upon obtaining a single cell preparation, odorous stimuli were presented every 3 min. […] The first two stimuli tested were volatiles emanating from 1 μg of grandlure, followed by volatiles emanating from a crushed cotton square. These two stimuli served to determine whether the cell was activated by the attractive pheromone of the boll weevil and/or volatiles emanating from its food source.

Test [2] relates to Boll Weevils. The test is described as follows: Competitive field test with released weevils, four trap array. Type of test: in vivo, Anthonomus grandis. From the text:
The second series of experiments involved an array of four traps. […] The two treatments being tested simultaneously in this competitive arrangement were placed alternately in the traps, i.e., the two traps baited with the same treatment were located diagonally from each other. Odorants diluted in hexane were released from glass capillaries placed in small vials in a container in each trap. […] Traps were then immediately baited. In each test, traps were checked and insects were removed at 1530 hrs and 1700 hrs on the day of release, and before 0900 hrs the next day (the time at which the test was terminated) in order to remove those insects which might have responded prior to darkness on the day of release.

The subject of test [3] is Arizona boll weevils. Nature of the test: Arizona initial field experiment, 24 traps in a straight line, four treatments. Format: in vivo, Anthonomus grandis. The conditions noted are these: 1, 10, 100 mg with grandlure 1 mg. On the procedure:
Since boll weevils in this region differ genetically from those in the southeastern United States [Burke, Texas Agric. Exp. Sta. Tech. Rep., 152 pp. (1968)], these tests were performed to determine if green leaf volatiles would also enhance capture of Arizona boll weevils in traps baited with the aggregation pheromone.
In the initial field experiment, 24 traps were placed 30 m apart in a straight line along a road near Phoenix and were baited with four different treatments: 1) grandlure 1 mg; 2) grandlure 1 mg+trans-2-hexen-1-ol 1 mg; 3) grandlure 1 mg+trans-2-hexen-1-ol 10 mg; 4) grandlure 1 mg+trans-2-hexen-1-ol 100 mg. All compounds were released from cigarette filters after mixing in a solution to retard their rate of release, as previously described [McKibben et al., supra]. Treatments were arranged in six blocks with the four treatments randomized within each block. Traps were checked the next day.

Test [4] relates to Boll Weevils. Nature of the test: Competitive field test with released weevils, triangular trap array. Type of test: in vivo, Anthonomus grandis. How it is done:
Two series of field tests were performed involving released boll weevils, in which grandlure was placed in competition with grandlure + the synergist. In the first series of experiments, a triangular array of traps was used. One trap was placed at each corner of a 20 m equilateral triangle (total of three traps). The three treatments released in this triangular array of traps were: 1) grandlure 3 mg; 2) grandlure 3 mg+synergist 100 mg; and 3) synergist 100 mg. The three synergists tested in these experiments were: trans-2-hexen-1-ol, 1-hexanol, and cis-3-hexen-1-ol. Cigarette filters were used to release the experimental odorants. One hundred insets (50 males and 50 females) were released along a line 20 m from each side of the triangle (300 insects total) at ca. 1000 hrs prior to baiting of the traps at 1200 hrs. Traps were check and insects were removed at 1400 hrs, 1600 hrs, and 1800 hrs, the times at which the test was terminated.

Test [5] concerns Boll Weevils. Nature of the test: Competitive field tests in Mississippi cotton fields, 4-week test period. The conditions noted are these: 10 mg and 100 mg, P<0.01, paired t-test. Type of test: in vivo, Anthonomus grandis. How it is done: Three cotton fields were used in this study to determine the effectiveness of trans-2-hexen-1-ol in synergizing grandlure in a practical situation. The experimental design consisted of placing four traps at the corners of a 20-m square within a cotton field of ca. 1 acre. Four additional traps were placed a few meters outside the cotton field, located near imaginary diagonal lines extending through the corners of the square within the field. Each trap contained a cigarette filter with 1 mg of grandlure. Cigarette filters containing trans-2-hexen-1-ol were placed alternately in the traps. The result resembled an “X” array of traps placed across each field with each arm of the “X” consisting of four traps, two within and two outside of the field. Traps within one arm contained grandlure 1 mg alone; those within the other arm were baited with grandlure 1 mg+trans-2-hexen-1-ol at a particular dosage. Only one dosage of the synergist occurred in each field. Dosages of trans-2-hexen-1-ol tested were: 1 mg, 10 mg, and 100 mg. Traps were freshly baited each week and checked daily at 1500 hrs for 3 days and at the end of the week.

In test [6] the test system is Arizona boll weevils. The test is described as follows: Arizona third field experiment, traps around 20 cotton fields. Format: in vivo, Anthonomus grandis. The conditions noted are these: grandlure 5 mg + trans-2-hexen-1-ol 10 mg. How it is done:
In a third field experiment, 20 cotton fields were selected. Three traps were placed at least 100 m apart along the edge of each field (60 traps total). The three traps were baited with one of the following treatments: 1) a 10-mg grandlure “Hercon” wafer; 2) 5 mg of grandlure in the same “Hercon” formulation; 3) the 5-mg grandlure
formulation+10 mg of trans-2-hexen-1-ol. The traps were checked daily and weevils were removed for the next 2 days.

Test [7] concerns Over-Wintered Boll Weevils. The test is described as follows: Competitive field test with over-wintered boll weevils, 3 weeks. Format: in vivo, Anthonomus grandis. The conditions noted are these: trans-2-hexen-1-ol 10 mg changed weekly, grandlure Hercon wafer 2.5 mg kept 3 wk. How it is done: The efficacy of the synergist in enhancing response of over-wintered boll weevils to grandlure was evaluated during the first 3 wks of May 1988, prior to the planting of cotton. In this experiment, the synergist trans-2-hexen-1-ol at 10 mg was released from a cigarette filter, in combination with a Hercon wafer formulation of grandlure at 2.5 mg. The grandlure formulation remained in the trap for the entire 3-wk period, while the cigarette filter containing the synergist was changed each week. During both the first and second weeks, trap captures increased for both the pheromone alone and for the pheromone+the synergist, presumably reflecting increasing numbers of boll weevils emerging from over-wintering sites (Table VII). However, while trap captures continued to increase for the pheromone+synergist during the third week, the number of boll weevils captured by the pheromone alone declined.

[8] abbreviates: volatiles emanating from 1 μg of odorant, cell responsive to crushed cotton square.

With `CCC/C=C/CO` [trans-2-hexen-1-ol], the “response of cells activated by volatiles from the crushed cotton square” value in test [1] (single olfactory cells) is given as “activated”. Further, in test [1] (setting [8]), the “Response in impulses/initial 500 msec, Cell #1” value is 83 impulses/initial 500 msec; the “Response in impulses/initial 500 msec, Cell #2” value is 67 impulses/initial 500 msec; the “Response in impulses/initial 500 msec, Cell #3” value came to 50 impulses/initial 500 msec; the “Response in impulses/initial 500 msec, Cell #4” value is given as 33 impulses/initial 500 msec. For the same molecule, the “trap capture in combination with grandlure (0.8 mg) in competition with grandlure (0.8 mg) alone” value with Boll Weevils [2] (0.1 mg, P<0.10, paired t-test) was “increased trap capture”. The “synergism with grandlure (0.8 mg) in competition with grandlure (0.8 mg) alone” value in the test on Boll Weevils [2] (1.0 mg of the compound) is given as “even more apparent”. Further, in the test on Boll Weevils [2] (each presented with grandlure 0.8 mg in a competitive experiment), the “effectiveness in combination with grandlure (0.8 mg) vs the combination with 1-hexanol” value is “more effective”. In addition, the “effect of addition on trap capture over grandlure alone” value with Arizona boll weevils [3] was “enhanced trap capture”. Besides, the “% Total” value with Boll Weevils [4] (grandlure 3 mg vs trans-2-hexen-1-ol 100 mg vs both) worked out at 5.9%. For the same molecule, the “Mean Trap Capture” value with Boll Weevils [4] (grandlure 3 mg vs trans-2-hexen-1-ol 100 mg vs both, three replicates) worked out at 1.3 A. For the same molecule, the “activity alone in competition with the other treatments” value in the test on Boll Weevils [4] (triangular array, 100 mg alone) was “relatively inactive”. Besides, in the test on Boll Weevils [4] (triangular array, grandlure 3 mg, synergist 100 mg), the “attraction of grandlure on addition of the compound, relative to grandlure alone” value was “significantly increased”. Moreover, the “weevils captured in combination with grandlure 1 mg vs grandlure alone at 1 mg” value in the test with Boll Weevils [5] is “captured more weevils of both sexes”. Also, the “effect of addition to grandlure on attractiveness over the 10-mg grandlure treatment” value in the test on Arizona boll weevils [6] is reported as “enhanced its attractiveness”. Besides, the “effect of the synergist on effectiveness of the pheromone with time” value in test [7] is recorded as “extend the effectiveness of the pheromone”.
